# Reference: paper PMC8880129, “Plant- and Bacteria-Derived Compounds with Anti-Philasterides dicentrarchi Activity” (Pathogens, 2022)
# Like-named read-outs stand apart in the source and are kept apart here.
# Assays:
# [1] = system: Philasterides dicentrarchi; assay: microbe, parasite or virus in culture; conditions: for mortality at 100 µM / inhibition at 100 µM / GI50: Philasterides dicentrarchi; for mortality at 100 µM / Ciliate Mortality 3 h (%): 3 h; for Ciliate Mortality 3 h (%) / parasites killed after 24 h / Growth Inhibition 24 h (%): 100 μM, culture medium; for Ciliate Mortality 3 h (%) / Growth Inhibition 24 h (%): mean ± SD of three replicates
# Procedure: P. dicentrarchi (isolate I1), obtained from an outbreak of scuticociliatosis in cultured turbot in Galicia, was routinely cultured at 18 °C in complete sterile L15 medium (Leibovitz, PAA Laboratories GmbH, 1% salinity, pH 7.2) containing 90 mg/L each of adenosine, cytidine, and uridine, 150 mg/L of guanosine, 5 g/L of glucose, 400 mg/L of L-α-phosphatidylcholine, 200 mg/L of Tween 80, 10% of heat-inactivated foetal bovine serum (FBS), and 10 mL/L of 100X antibiotic–antimycotic solution (100 units/mL of penicillin G, 0.1 mg/mL of streptomycin sulphate and 0.25 mg/mL of amphotericin B), as previously described. Alternatively, ciliates were cultured in seawater with autoclaved marine bacteria (10^6 cells/mL) supplied as food at 21 °C. The ciliates were cultured under normoxic conditions in tissue culture flasks fitted with vented caps that enabled aeration of the culture medium.
# We tested the toxicity to P. dicentrarchi of 26 compounds of natural origin (Table 1). The compounds were prepared in 10 mM stock solutions in dimethyl sulfoxide (DMSO) and maintained at −20 °C until use. In addition, the Pseudomonas H6 lipopeptide surfactant (PS) was prepared, lyophilised and stored at −20 °C [37]. A stock solution of PS was prepared in distilled water (1000 ppm) and diluted in culture medium or seawater at the final concentrations used in each assay and sterile filtered (through 0.2 µm filters) before being added to the parasites or EPC cells.
# The anticiliate activity was assayed as previously described, with minor modifications. Ciliates were concentrated by centrifugation at 650× g for 5 min and resuspended in a medium at the concentration required for the assays. All experiments were carried out in triplicate. Wells containing ciliates in a culture medium or seawater without the test compounds were assayed as negative controls. To rule out any possible effects of the solvent (DMSO), triplicate wells with a culture medium or seawater containing the highest concentration of DMSO used (up to 1%) were also included. […] In these assays, the compounds were diluted in 1 mL of culture medium or seawater and added to the wells of 24-well sterile culture plates containing 2.5 × 10^4 ciliates per well, at final concentrations of […], 6.25, 12.5, 25, 50, and 100 µM in culture medium. The effects of the compounds on the motility and morphology of the ciliates were monitored periodically (at 30 min, 1, 2, 3, 24, and 48 h) under an inverted optical microscope. Ciliates were considered dead when they lysed and were not motile. The results obtained are expressed as percentage mortality for each experimental group. To estimate the total number of ciliates per well, the ciliates were inactivated by adding 0.25% glutaraldehyde and counted in a haemocytometer under an optical microscope. The lowest dose of the selected compounds resulting in 100% ciliate mortality (LC100) was assessed at 1, 2, and 3 h after incubation of parasites with sample dilutions (from 0 to 100 μg/mL, in 10 μg intervals). The concentration that inhibited 50% of ciliate growth (GI50), in comparison with the control group, was calculated with Excel software (Microsoft Office; Microsoft, Redmond, WA, USA) by plotting the dose-response data (log dose-per cent of growth inhibition) and applying linear regression (y = mx + b) for data fitting. The values were then calculated from the equation log GI50 = (50 − b)/m, where m is the slope y1 − y2/x1 − x2, and b is the intercept of the line.
# [2] = system: Philasterides dicentrarchi; assay: Anticiliate activity, ciliates maintained in seawater (LC100, LC50); type: cell-based; conditions: 3 h incubation
# Procedure: All experiments were carried out in triplicate.
# [3] = Toxicity to EPC cell line, MTT assay; type: cell-based, fish; conditions: fish
# Procedure: (§1) We used the Epithelioma Papulosum Cyprini (EPC) cell line, acquired from the American Type Culture Collection (ATCC®, Manassas, VA, USA), as a control for toxicity. The cell line, kindly provided by Doctors Pereira-Dopazo and Bandin from the Aquaculture Institute of the University of Santiago de Coompostela, was cultured in MEM medium equilibrated with Hanks’ balanced salts (Gibco, Thermo Fischer Sci., Waltham, MA, USA) supplemented with 10% foetal bovine serum and 10 mL/L of 100X antibiotic–antimycotic solution. Cells were maintained subconfluent at 25 °C in a cell culture incubator and used when the confluence reached 75%.
# (§2) Cell viability was then estimated by the MTT (3-(4,5-dimethylthiazol-2-yl)-2,5-diphenyl tetrazolium bromide) assay, as previously described, with minor modifications. Briefly, 100 μL of the MTT solution (1 mg/mL in phosphate-buffered saline; pH 7.2) was added to each well, and plates were incubated at 25 °C for 4 h. The yellow tetrazolium salt of MTT is reduced by mitochondrial dehydrogenases in metabolically active cells to form insoluble purple formazan crystals, which are then dissolved by the addition of DMSO (50 μL/well). Prior to the addition of MTT or DMSO, the plates were washed, and the supernatant was removed. The absorbance was measured at 540 nm in a microplate reader (Multiskan™, Thermo Fischer Sci., Waltham, MA, USA), and the relative cell viability was expressed as the mean percentage of viable cells relative to untreated cells.
# (§3) In the viability assay, the possible effect of DMSO was evaluated for each compound by the inclusion of three replicate wells with MEM medium and the same DMSO concentration as in the medium. […] Control cells with only MEM were also included in the assay.
# EPC cells = assay: Toxicity to EPC cell line, MTT assay; type: cell-based, fish; conditions: 24 h incubation, compound at its GI50 (24 h)
# Procedure: as §1, §2, §3
# P. dicentrarchi = system: P. dicentrarchi; design: method as in PMID 15212284, PMID 21987103, PMID 27334368; conditions: cited from earlier work
# [4] = read-out: Ciliate Mortality 3 h (%), 100 μM, 3 h, culture medium, mean ± SD of three replicates
# [5] = 24 h, read-out: Growth Inhibition 24 h (%), 100 μM, 24 h, culture medium, mean ± SD of three replicates
# [6] = 24 h, read-out: GI50 24 h (compound concentration that inhibited 50% of parasite growth)
# [7] = 48 h, read-out: GI50 48 h (compound concentration that inhibited 50% of parasite growth)
Molecule,"mortality at 100 µM [1, 4] [%]","inhibition at 100 µM [1, 5] [%]",Growth Inhibition 24 h (%) ([1]; 24 h),further results
CC12CCC(CC1)C(C)(C)O2 [Eucalyptol],17 ± 8.42,35.6 ± 4.21,–,–
"O=C(/C=C/c1ccccc1)c1ccc(O)cc1O [2′,4′-dihydroxychalcone]",> 90,100,–,"Ciliate Mortality 3 h (%) [1]: 99 ± 0.71%; parasites killed after 24 h ([1]; 24 h): killed all the parasites; GI50 [1, 6]: 7.54 ± 1.31 µM; GI50 [1, 7]: 5.68 ± 0.16 µM; LC100 (lowest concentration resulting in 100% ciliate mortality) [2]: 70 µM; viability at 3 h [3]: 92 ± 2.5%; viability at 24 h [3]: 89.7 ± 1.4%; EPC cells killed (EPC cells): about 10%"
O=c1ccc2cc(O)c(O)cc2o1 [Esculetin],8.2 ± 5.32,15.3 ± 6.32,–,–
CC12CCC(CC1=O)C2(C)C (centres unmarked) [Camphor (1r)],–,–,77.42 ± 2.7,Ciliate Mortality 3 h (%) [1]: 0%
CC1(C)CCC[C@]2(C)[C@H]3CC(=O)O[C@]3(C)CC[C@@H]12 [Sclareolide],–,–,71.67 ± 6.92,–
O=c1cc(-c2ccccc2)oc2cc(O)ccc12 [7-hydroxyflavone],10 ± 1.52,67.4 ± 2.4,–,–
C[C@H]1[C@H]2CC[C@H]3[C@@H]4CC=C5C[C@@H](N(C)C)CC[C@]5(C)[C@H]4CC[C@]23CN1C [Conessine],50.2 ± 4.5,> 80,84.42 ± 2.42,"GI50 [1, 6]: 12 ± 0.8 µM; GI50 [1, 7]: 11.2 ± 0.65 µM"
Garlicin [Garlicin 80%],–,–,42.47 ± 5.62,–
COc1cc2c(cc1OC)-c1cc3ccc(OC)c(OC)c3c[n+]1CC2 [Palmatine chloride],6.8 ± 0.59,28.5 ± 4.25,–,–
C[C@@H]1CC[C@H]2C(C)(C)[C@H]3C[C@@]12CC[C@@]3(C)O [Cedrol],64.2 ± 3.7,66.67 ± 0.33,–,–
CC(O)C(=O)[O-].[Na+] (centres unmarked) [Sodium lactate],–,–,28.33 ± 3.93,Ciliate Mortality 3 h (%) [1]: 13.76 ± 4.1%
O=c1ccc2ccc(O)cc2o1 [Umbelliferone],2.9 ± 1.89,44.9 ± 7.23,–,–
CC(=O)c1c(O)c(C)c(O)c2c1OC1=CC(=O)C(C(C)=O)C(=O)C12C (centres unmarked) [Usnic acid],38.3 ± 5.52,68.3 ± 3.34,–,–
O=c1c2cc(O)c(O)cc2oc2cc(O)c([C@@H]3O[C@H](CO)[C@@H](O)[C@H](O)[C@H]3O)c(O)c12 [mangiferin],–,–,–,efficacy against P. dicentrarchi (P. dicentrarchi): effective
C[C@H]1C(=O)O[C@@H]2CCN3CC=C(COC(=O)[C@](C)(O)[C@]1(C)O)[C@H]23 [Monocrolatine],–,–,9.8 ± 2.11,Ciliate Mortality 3 h (%) [1]: 6.61 ± 1.06%
O=c1ccc2ccccc2o1 [Coumarin],8 ± 5.9,23.5 ± 4.12,–,–
OCCc1ccccc1 [Phenylethyl alcohol],2.3 ± 1.4,30.1 ± 4.63,–,–
C=CCSCC=C [Diallyl sulfide],22.3 ± 5.1,38.8 ± 7.32,–,–
COc1cc(/C=C/C(=O)CC(=O)/C=C/c2ccc(O)c(OC)c2)ccc1O [curcumin],–,–,–,efficacy against P. dicentrarchi (P. dicentrarchi): effective
O=C(/C=C/c1ccc(O)c(O)c1)O[C@H](Cc1ccc(O)c(O)c1)C(=O)O [Rosmarinic acid],27.1 ± 7.27,35 ± 5.51,–,–
CCCCOC(=O)c1ccc(O)cc1 [Butyl 4-hydroxybenzoate],52.9 ± 2.39,> 80,80.65 ± 2.42,"GI50 [1, 6]: 43.9 ± 6.6 µM; GI50 [1, 7]: 29.2 ± 0.35 µM"
Oc1ccc(/C=C/c2cc(O)cc(O)c2)cc1 [resveratrol],–,–,–,efficacy against P. dicentrarchi (P. dicentrarchi): effective
O=C(O)c1ccccc1 [Benzoic acid],–,–,–,"mortality at 100 µM ([1]; read-out: Ciliate Mortality 3 h (%)): 1.64 ± 0.56%; inhibition at 100 µM ([1]; 24 h, read-out: Growth Inhibition 24 h (%)): 17.4 ± 1.2%"
O=C(O[C@@H]1Cc2c(O)cc(O)cc2O[C@@H]1c1cc(O)c(O)c(O)c1)c1cc(O)c(O)c(O)c1 [epigallocatechin gallate],–,–,–,efficacy against P. dicentrarchi (P. dicentrarchi): effective
O=C(/C=C/C=C/c1ccc2c(c1)OCO2)N1CCCCC1 [Piperine],42.6 ± 9.1,> 80,89.04 ± 3.37,"GI50 [1, 6]: 60.7 ± 6.31 µM; GI50 [1, 7]: 44 ± 1.83 µM"
O=C(O)CCCC[C@@H]1SC[C@@H]2NC(=O)N[C@@H]21 [Biotin],0,37 ± 0.72,–,–
CCCCCCc1ccc(O)cc1O [4-hexylresorcinol],> 90,100,–,"Ciliate Mortality 3 h (%) [1]: 95.3 ± 4.05%; parasites killed after 24 h ([1]; 24 h): killed all the parasites; GI50 [1, 6]: 63.3 ± 3.61 µM; GI50 [1, 7]: 40.8 ± 0.11 µM"
CC1=NCCc2c1[nH]c1cc(O)ccc21.Cl.O.O [Harmalol hydrochloride dihydrate],–,–,40.08 ± 4.9,Ciliate Mortality 3 h (%) [1]: 4.8 ± 1.12%
